Assay results reported in ChEMBL document CHEMBL4219202, “C21 steroidal glycosides with cytotoxic activities from Cynanchum otophyllum” (Bioorg Med Chem Lett, 2018).

Key:
Format in all cases: functional, cell-based
[1] = tested on: SW480; experiment: Cytotoxicity against human SW480 cells assessed as reduction in cell viability after 48 hrs by MTS assay; details: SW480, 48 h
[2] = tested on: HL-60; experiment: Cytotoxicity against human HL60 cells assessed as reduction in cell viability after 48 hrs by MTS assay; details: HL-60, 48 h
[3] = tested on: A549; experiment: Cytotoxicity against human A549 cells assessed as reduction in cell viability after 48 hrs by MTS assay; details: A549, 48 h
[4] = tested on: SMMC-7721; experiment: Cytotoxicity against human SMMC7721 cells assessed as reduction in cell viability after 48 hrs by MTS assay; details: SMMC-7721, 48 h
[5] = tested on: MCF7; experiment: Cytotoxicity against human MCF7 cells assessed as reduction in cell viability after 48 hrs by MTS assay; details: MCF7, 48 h

Row | Structure (SMILES) | IC50 [1] [µM] | IC50 [2] [µM] | IC50 [3] [µM] | IC50 [4] [µM] | IC50 [5] [µM]
1 | CO[C@H]1C[C@H](O[C@H]2CC[C@@]3(C)C(=CC[C@]4(O)[C@@H]3C[C@@H](OC(=O)/C=C/C(C)C)[C@@]3(C)[C@]4(O)CC[C@@]3(O)C(C)=O)C2)O[C@H](C)[C@H]1O[C@H]1C[C@H](OC)[C@H](O[C@H]2C[C@@H](OC)[C@H](O)[C@@H](C)O2)[C@@H](C)O1 | > 40 | 25.8 | > 40 | > 40 | > 40
2 | CO[C@H]1C[C@H](O[C@H]2CC[C@@]3(C)C(=CC[C@]4(O)[C@@H]3C[C@@H](OC(=O)/C=C(\C)C(C)C)[C@@]3(C)[C@]4(O)CC[C@@]3(O)C(C)=O)C2)O[C@H](C)[C@H]1O[C@H]1C[C@H](OC)[C@H](O[C@H]2C[C@@H](OC)[C@H](O)[C@@H](C)O2)[C@@H](C)O1 | 30.3 | 11.4 | 27.7 | 27.9 | 16.1
3 | CO[C@H]1C[C@H](O[C@H]2CC[C@@]3(C)C(=CC[C@]4(O)[C@@H]3C[C@@H](OC(=O)/C=C(\C)C(C)C)[C@@]3(C)[C@]4(O)CC[C@@]3(O)C(C)=O)C2)O[C@H](C)[C@H]1O[C@H]1C[C@H](OC)[C@H](O[C@H]2C[C@@H](OC)[C@H](O[C@H]3C[C@@H](OC)[C@H](O)[C@@H](C)O3)[C@@H](C)O2)[C@@H](C)O1 | 28.8 | 12.2 | > 40 | 30.8 | 18
4 | CO[C@H]1C[C@H](O[C@H]2CC[C@@]3(C)C(=CC[C@]4(O)[C@@H]3C[C@@H](OC(=O)/C=C(\C)C(C)C)[C@@]3(C)[C@]4(O)CC[C@@]3(O)C(C)=O)C2)O[C@H](C)[C@H]1O[C@H]1C[C@H](O)[C@H](O[C@H]2C[C@@H](OC)[C@H](O)[C@@H](C)O2)[C@@H](C)O1 | 24.8 | 12.9 | 30.4 | 27.4 | 17.2
5 | CO[C@H]1C[C@H](O[C@H]2[C@@H](OC)C[C@H](O[C@H]3CC[C@@]4(C)C(=CC[C@]5(O)[C@@H]4C[C@@H](OC(=O)/C=C/c4ccccc4)[C@@]4(C)[C@]5(O)CC[C@@]4(O)C(C)=O)C3)O[C@@H]2C)O[C@H](C)[C@H]1O | 36.7 | 20.6 | 35.5 | 33.1 | 25.6
6 | CO[C@H]1C[C@H](O[C@H]2CC[C@@]3(C)C(=CC[C@]4(O)[C@@H]3C[C@@H](OC(=O)/C=C(\C)C(C)C)[C@@]3(C)[C@]4(O)CC[C@@]3(O)C(C)=O)C2)O[C@H](C)[C@H]1O | > 40 | 25.6 | > 40 | > 40 | > 40
7 | CO[C@H]1C[C@H](O[C@H]2[C@@H](OC)C[C@H](O[C@H]3CC[C@]4(C)[C@H]5C[C@@H](OC(=O)/C=C(\C)C(C)C)[C@@]6(C)[C@](O)(CC[C@@]6(O)C(C)=O)[C@]5(O)C[C@@H]5O[C@@]54C3)O[C@@H]2C)O[C@H](C)[C@H]1O | > 40 | 15.8 | > 40 | > 40 | > 40
8 | CO[C@H]1C[C@H](O[C@H]2CC[C@@]3(C)C(=CC[C@]4(O)[C@@H]3C[C@@H](OC(=O)c3ccc(O)cc3)[C@@]3(C)[C@]4(O)CC[C@@]3(O)C(C)=O)C2)O[C@H](C)[C@H]1O[C@H]1C[C@H](OC)[C@H](O[C@H]2C[C@@H](OC)[C@H](O)[C@@H](C)O2)[C@@H](C)O1 | > 40 | 29.1 | > 40 | > 40 | > 40
9 | CO[C@H]1C[C@H](O[C@H]2CC[C@@]3(C)C(=CC[C@]4(O)[C@@H]3C[C@@H](OC(=O)c3ccccc3)[C@@]3(C)[C@]4(O)CC[C@@]3(O)C(C)=O)C2)O[C@H](C)[C@H]1O[C@H]1C[C@@H](OC)[C@H](O)[C@@H](C)O1 | > 40 | 15.6 | > 40 | > 40 | > 40
10 | COc1cc(C(=O)O[C@@H]2C[C@@H]3[C@@]4(C)CC[C@H](O[C@H]5C[C@H](O)[C@H](O[C@H]6C[C@H](OC)[C@H](O[C@H]7C[C@@H](OC)[C@H](O)[C@@H](C)O7)[C@@H](C)O6)[C@@H](C)O5)CC4=CC[C@@]3(O)[C@@]3(O)CC[C@@](O)(C(C)=O)[C@@]23C)ccc1O | > 40 | 37.9 | > 40 | > 40 | > 40
11 | CO[C@H]1C[C@H](O[C@H]2CC[C@@]3(C)C(=CC[C@]4(O)[C@@H]3C[C@@H](OC(=O)/C=C(\C)C(C)C)[C@@]3(C)[C@]4(O)CC[C@@]3(O)C(C)=O)C2)O[C@H](C)[C@H]1O[C@H]1C[C@@H](OC)[C@H](O)[C@@H](C)O1 | > 40 | 15.4 | > 40 | > 40 | > 40
12 | CO[C@H]1C[C@H](O[C@H]2[C@@H](O)C[C@H](O[C@H]3CC[C@@]4(C)C(=CC[C@]5(O)[C@@H]4C[C@@H](OC(=O)/C=C(\C)C(C)C)[C@@]4(C)[C@]5(O)CC[C@@]4(O)C(C)=O)C3)O[C@@H]2C)O[C@H](C)[C@H]1O | > 40 | 15.7 | > 40 | > 40 | > 40
13 | C/C=C(\C)C(=O)O[C@@H]1C[C@@H]2[C@@]3(C)CC[C@H](O[C@H]4C[C@H](OC)[C@H](O[C@H]5C[C@H](OC)[C@H](O[C@H]6C[C@@H](OC)[C@H](O)[C@@H](C)O6)[C@@H](C)O5)[C@@H](C)O4)CC3=CC[C@@]2(O)[C@@]2(O)CC[C@@](O)(C(C)=O)[C@@]12C | > 40 | 15.6 | > 40 | > 40 | > 40
